Experiment [1] can be described thus: NIH3T3 cell viability loss – ATP luminescence, mouse fibroblasts, counter-screen, dose response (AID 2010).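 Note: cells exposed to compound for about 90 hours before reading.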 It is filed as functional, cell-based.
The nature of experiment [2]: non-specific 3'UTR reporter inhibition in Clone20-Shn3RL – cell-based, Renilla luciferase, cherry-picked, counter-screen for Shn3 inhibitor project, dose response (AID 624133). It is filed as functional. Background: Counterscreens check selectivity or assay interference.
Experiment [3] can be described thus: reduction of Shn3 3'UTR-driven luciferase in osteoblasts – cell-based, Clone20 osteoblasts, firefly luciferase, cherry-picked, dose response (AID 624132).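 Note: firefly luciferase luminescence from reporter carrying the Shn3 3'UTR in osteoblasts.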 It is filed as functional.
Experiment [4] is described as follows: luciferase reporter signal suppression in cells – H4 neuroglioma cells, luminescence, dose response (AID 1990). It is filed as functional, cell-based. A general note: A reporter such as luciferase makes a cellular process visible.
A short description of experiment [5]: general mammalian cell viability loss – activator set, cherry-pick, cytotoxicity control for miR-122 modulator project, dose response (AID 720690).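 Note: HEK293T human cells scored for general mammalian cytotoxicity.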 It is filed as functional, cell-based.
Experiment [6] is described as follows: alpha-synuclein stem-loop luciferase translation blockers – H4 neuroglioma cells, luminescence, confirmation (AID 1988). It is filed as functional, cell-based.
Experiment [7] can be described thus: loss of viability in HepG2 cells – cell-based, CellTiter-Glo, cherry-picked, cytotoxicity control for Shn3 inhibitor project, dose response (AID 624134). It is filed as functional.
Experiment [8] is described as follows: general mammalian cell viability loss – inhibitor set, cherry-pick, set 2, cytotoxicity control for miR-122 modulator project, dose response (AID 720697). It is filed as functional, cell-based.
A short description of experiment [9]: Trypanosoma cruzi growth suppression in host cells – NIH3T3 host cells, beta-gal luminescence, confirmation (AID 2044).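 Note: intracellular parasites grown in NIH/3T3 mouse fibroblasts as host cells; luminescent beta-galactosidase reporter signal from transgenic T. cruzi replicating inside host cells; inhibitors lower the luminescence signal.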 It is filed as functional, cell-based.
Experiment [10] is described as follows: Luminescence Cell-Based Dose Response HTS to Identify Inhibitors of 5'UTR Stem-Loop Driven Prion Protein mRNA Translation in H4 Neuroglioblastoma Cells. [Related pubchem assays: 1827 (Project Summary), 1813 (Primary HTS)]. It is filed as functional.
For experiment [11], the target named is T1, COUP transcription factor 2 (Homo sapiens, UniProt P24468).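 Note: HEK293 cells transiently cotransfected with COUP-TFII expression vector and reporter; luciferase reporter luminescence driven by COUP-TFII from the pX2-168 reporter plasmid.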
T1 sequence (P24468 whole entry): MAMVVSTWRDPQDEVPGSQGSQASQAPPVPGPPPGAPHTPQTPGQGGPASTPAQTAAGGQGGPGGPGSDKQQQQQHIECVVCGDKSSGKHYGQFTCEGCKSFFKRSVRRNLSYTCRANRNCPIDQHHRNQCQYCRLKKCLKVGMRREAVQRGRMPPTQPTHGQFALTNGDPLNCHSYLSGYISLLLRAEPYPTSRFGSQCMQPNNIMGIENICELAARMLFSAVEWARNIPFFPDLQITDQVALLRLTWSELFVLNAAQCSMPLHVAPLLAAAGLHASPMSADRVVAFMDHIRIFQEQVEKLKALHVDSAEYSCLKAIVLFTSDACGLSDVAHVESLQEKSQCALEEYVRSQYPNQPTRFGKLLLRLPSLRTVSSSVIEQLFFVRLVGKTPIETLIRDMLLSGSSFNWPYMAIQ
Briefly: Luminescence-based cell-based high throughput dose response assay to identify inhibitors of COUP-TFII (NR2F2). It is filed as functional.

Experiment [12] addresses T2, fMet-Leu-Phe receptor (Homo sapiens, UniProt P21462).
T2 sequence (P21462 whole entry): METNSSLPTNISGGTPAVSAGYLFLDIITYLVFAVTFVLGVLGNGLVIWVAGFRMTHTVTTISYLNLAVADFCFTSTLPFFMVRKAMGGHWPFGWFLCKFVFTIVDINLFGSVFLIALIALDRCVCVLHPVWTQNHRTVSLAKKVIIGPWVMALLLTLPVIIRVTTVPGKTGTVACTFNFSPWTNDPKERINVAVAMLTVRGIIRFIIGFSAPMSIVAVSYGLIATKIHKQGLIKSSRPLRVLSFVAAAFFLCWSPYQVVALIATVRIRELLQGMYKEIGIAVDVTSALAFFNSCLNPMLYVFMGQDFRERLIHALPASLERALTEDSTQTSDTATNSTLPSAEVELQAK
In words: formyl peptide receptor binders – dose response (AID 519). It is filed as functional.

Experiment [13] can be described thus: microbe, parasite or virus in culture. It is filed as functional. The conditions noted are these: Mycobacterium tuberculosis.
Experiment [14] deals with T3, Fatty acid synthase (Homo sapiens, UniProt P49327). Briefly: inhibition of human FAS-TE enzyme activity – biochemical, kinetic fluorescence intensity, dose response (AID 624326).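 Note: rate of fluorescence rise from hydrolysis of a fluorogenic O-methyl fluorescein ester substrate.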 It is filed as functional.
T3 sequence (P49327 whole entry): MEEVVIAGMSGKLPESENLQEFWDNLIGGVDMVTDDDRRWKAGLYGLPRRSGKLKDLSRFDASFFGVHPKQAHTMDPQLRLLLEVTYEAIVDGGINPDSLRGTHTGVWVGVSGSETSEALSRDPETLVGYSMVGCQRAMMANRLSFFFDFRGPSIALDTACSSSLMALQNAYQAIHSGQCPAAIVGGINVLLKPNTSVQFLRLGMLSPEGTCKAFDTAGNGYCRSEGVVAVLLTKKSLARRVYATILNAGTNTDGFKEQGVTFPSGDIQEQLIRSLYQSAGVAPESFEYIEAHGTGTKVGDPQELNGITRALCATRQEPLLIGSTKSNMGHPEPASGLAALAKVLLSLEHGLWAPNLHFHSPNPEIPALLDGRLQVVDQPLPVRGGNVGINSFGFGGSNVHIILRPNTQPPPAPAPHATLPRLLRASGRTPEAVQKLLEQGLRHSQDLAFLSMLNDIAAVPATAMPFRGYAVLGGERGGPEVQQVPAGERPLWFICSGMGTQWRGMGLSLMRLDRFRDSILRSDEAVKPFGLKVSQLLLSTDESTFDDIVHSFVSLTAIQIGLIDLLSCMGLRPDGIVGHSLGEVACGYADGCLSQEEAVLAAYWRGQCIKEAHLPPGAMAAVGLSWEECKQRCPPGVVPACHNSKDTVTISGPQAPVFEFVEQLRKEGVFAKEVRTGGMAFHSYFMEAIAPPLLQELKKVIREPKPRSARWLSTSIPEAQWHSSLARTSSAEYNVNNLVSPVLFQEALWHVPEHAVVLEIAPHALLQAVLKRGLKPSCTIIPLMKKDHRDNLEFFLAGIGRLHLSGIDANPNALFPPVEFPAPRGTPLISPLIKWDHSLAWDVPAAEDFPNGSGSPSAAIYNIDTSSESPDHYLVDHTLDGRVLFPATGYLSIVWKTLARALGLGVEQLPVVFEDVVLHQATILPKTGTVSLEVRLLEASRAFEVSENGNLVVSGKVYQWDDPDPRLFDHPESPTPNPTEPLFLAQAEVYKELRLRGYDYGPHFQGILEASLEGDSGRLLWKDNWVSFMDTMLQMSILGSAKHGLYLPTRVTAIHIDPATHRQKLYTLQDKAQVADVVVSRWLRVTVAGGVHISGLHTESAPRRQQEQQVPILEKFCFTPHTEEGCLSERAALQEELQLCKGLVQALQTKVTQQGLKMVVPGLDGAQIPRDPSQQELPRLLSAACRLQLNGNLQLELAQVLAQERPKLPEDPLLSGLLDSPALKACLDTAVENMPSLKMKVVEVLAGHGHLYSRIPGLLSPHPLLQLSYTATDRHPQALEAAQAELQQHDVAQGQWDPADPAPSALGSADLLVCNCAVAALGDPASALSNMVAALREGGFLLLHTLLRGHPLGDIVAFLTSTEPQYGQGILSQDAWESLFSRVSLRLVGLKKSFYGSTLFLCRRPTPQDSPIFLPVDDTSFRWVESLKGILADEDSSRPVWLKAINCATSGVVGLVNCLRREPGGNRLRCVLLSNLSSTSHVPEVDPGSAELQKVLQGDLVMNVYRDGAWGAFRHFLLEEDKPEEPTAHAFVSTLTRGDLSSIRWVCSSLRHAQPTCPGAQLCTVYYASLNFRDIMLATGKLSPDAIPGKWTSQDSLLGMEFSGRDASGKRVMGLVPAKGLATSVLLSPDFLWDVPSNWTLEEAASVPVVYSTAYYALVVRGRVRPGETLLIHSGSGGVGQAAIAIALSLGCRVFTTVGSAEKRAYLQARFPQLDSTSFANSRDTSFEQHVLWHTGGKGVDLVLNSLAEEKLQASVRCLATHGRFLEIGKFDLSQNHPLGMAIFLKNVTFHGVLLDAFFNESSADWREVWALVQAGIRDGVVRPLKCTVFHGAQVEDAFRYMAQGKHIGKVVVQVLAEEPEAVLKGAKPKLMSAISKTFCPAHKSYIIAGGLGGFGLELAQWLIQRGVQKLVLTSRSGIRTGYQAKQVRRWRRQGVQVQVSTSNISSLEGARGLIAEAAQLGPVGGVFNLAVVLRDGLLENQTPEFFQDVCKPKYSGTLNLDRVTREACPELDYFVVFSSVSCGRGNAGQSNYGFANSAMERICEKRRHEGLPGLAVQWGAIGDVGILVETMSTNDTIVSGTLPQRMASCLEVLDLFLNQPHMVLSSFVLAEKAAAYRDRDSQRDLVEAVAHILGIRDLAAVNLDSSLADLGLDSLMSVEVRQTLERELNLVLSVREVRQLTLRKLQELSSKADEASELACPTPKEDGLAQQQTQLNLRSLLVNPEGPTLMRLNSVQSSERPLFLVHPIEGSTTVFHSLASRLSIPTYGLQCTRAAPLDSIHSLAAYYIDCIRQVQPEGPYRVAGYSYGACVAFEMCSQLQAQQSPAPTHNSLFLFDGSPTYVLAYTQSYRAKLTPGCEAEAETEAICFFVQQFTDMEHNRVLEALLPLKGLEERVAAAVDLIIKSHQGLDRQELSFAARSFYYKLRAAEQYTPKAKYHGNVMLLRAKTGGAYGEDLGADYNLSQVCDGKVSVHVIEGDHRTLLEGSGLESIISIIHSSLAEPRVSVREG
Experiment [15] is described as follows: HEK-293T viability loss after treatment – luminescence, T-cell screen hits, cytotoxicity control for TCR NF-kB inhibitor project, dose response (AID 489026).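 Note: cells exposed to compound about 14 hours before the viability readout.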 It is filed as functional, cell-based.
Experiment [16] is described as follows: HIV-1 AD8 envelope cell-cell fusion blockers – cherry-pick, dose response (AID 652062).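 Note: luciferase signal from cell-cell fusion driven by HIV-1 clade B AD8 Env; potency is for inhibitors of fusion seen as a drop in luminescence.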 It is filed as functional, cell-based.
Experiment [17] has as its target T3, Fatty acid synthase. In words: inhibition of human FAS-TE enzyme activity – biochemical, endpoint fluorescence intensity, uHTS hits, dose response (AID 624327).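 Note: fluorescence from hydrolysis of an O-methyl fluorescein acyl ester substrate by the enzyme.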 It is filed as functional.
The nature of experiment [18]: viability loss in CEM21 cells – cell-based, CellTiter-Glo luminescence, cherry-picked, cytotoxicity control for viral fusion inhibitor project, dose response (AID 652042).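 Note: potency for signal decrease meaning cytotoxicity.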 It is filed as functional. A general note: In ATP-based viability assays light output follows the ATP content of the culture.
Experiment [19] in a line: toxicity toward HepG2 liver cells – cell-based, plate reader, cherry-pick, antagonist series, cytotoxicity control, dose response (AID 743416). It is filed as functional.
Experiment [20] can be described thus: viability loss in HeLa cells – cytotoxicity control for MgcRacGAP inhibitor project, dose response (AID 624300). It is filed as functional.
A short description of experiment [21]: blockers of bursicon-stimulated LGR2 cAMP reporter – cell-based, HEK293, CRE-luciferase reporter, cherry pick, set 2, dose response (AID 743343).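 Note: transfected cells were stimulated with diluted bursicon conditioned medium after compound addition.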 It is filed as functional.
The nature of experiment [22]: A549 cell cytotoxicity, dose response, cytotoxicity control, plate reader, cherry-pick, antagonist series (AID 743412). It is filed as functional, cell-based.
Experiment [23] deals with T4, Rac GTPase-activating protein 1 (Homo sapiens, UniProt Q9H0H5).
T4 sequence (Q9H0H5 whole entry): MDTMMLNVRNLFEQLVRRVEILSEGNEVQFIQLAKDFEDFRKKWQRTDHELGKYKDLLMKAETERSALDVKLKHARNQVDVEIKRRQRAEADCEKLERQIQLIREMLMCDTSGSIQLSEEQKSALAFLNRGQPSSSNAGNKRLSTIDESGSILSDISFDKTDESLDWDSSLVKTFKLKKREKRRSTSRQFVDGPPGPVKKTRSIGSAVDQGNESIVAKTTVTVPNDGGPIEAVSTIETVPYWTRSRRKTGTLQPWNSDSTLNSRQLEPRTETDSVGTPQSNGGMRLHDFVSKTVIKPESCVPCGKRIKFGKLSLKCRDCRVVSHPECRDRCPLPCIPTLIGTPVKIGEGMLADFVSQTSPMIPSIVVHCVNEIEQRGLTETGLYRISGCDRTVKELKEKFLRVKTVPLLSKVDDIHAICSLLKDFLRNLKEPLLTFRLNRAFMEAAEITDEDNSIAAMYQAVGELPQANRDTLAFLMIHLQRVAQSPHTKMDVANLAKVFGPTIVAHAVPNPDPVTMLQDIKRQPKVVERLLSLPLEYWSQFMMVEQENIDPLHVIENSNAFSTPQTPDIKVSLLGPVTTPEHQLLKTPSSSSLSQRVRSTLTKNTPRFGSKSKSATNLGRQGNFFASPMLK
Briefly: blockers of MgcRacGAP-driven Rac1 GTP hydrolysis – biochemical, ADP Hunter fluorescence, primary and confirmatory, confirmation (AID 624330). It is filed as functional.

Experiment [24] concerns the target T5, Caspase-6 (Homo sapiens, UniProt P55212).
T5 sequence (P55212 whole entry): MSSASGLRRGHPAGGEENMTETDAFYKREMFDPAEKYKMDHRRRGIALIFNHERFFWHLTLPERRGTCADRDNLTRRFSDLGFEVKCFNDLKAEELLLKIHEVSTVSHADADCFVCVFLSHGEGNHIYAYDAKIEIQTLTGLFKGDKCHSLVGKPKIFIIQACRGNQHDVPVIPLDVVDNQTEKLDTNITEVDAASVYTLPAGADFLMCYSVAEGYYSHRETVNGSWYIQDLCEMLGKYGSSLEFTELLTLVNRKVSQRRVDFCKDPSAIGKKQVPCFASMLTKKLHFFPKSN
Briefly: inhibition of CASP6 peptide cleavage – biochemical, VEID-R110 fluorescence, cherry-pick, dose response (AID 720632).

The test system of experiment [25] is BJ. In words: growth inhibition of engineered Ras-driven BJ cells – cell-based, alamar blue fluorescence, cherrypicked samples, dose response (AID 2631).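 Note: confirmatory dose-response assay in RAS-dependent BJ fibroblasts engineered with TERT, LT and ST, with cytotoxicity read by fluorescence.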 It is filed as functional. The note with it: Homo sapiens.
Experiment [26] deals with BJ. In words: BJ-TERT-LT-ST fibroblast viability loss – cell-based, RAS-independent, luminescence, dose response (AID 1935).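 Note: BJ fibroblasts immortalized with TERT plus LT and ST oncogenes.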 It is filed as functional. The note with it: Homo sapiens.
The nature of experiment [27]: activation of miR-122 Renilla sensor silencing – cell-based, Huh7 psiCHECK-miR122, Renilla luciferase, cherry-picked, dose response (AID 651956).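 Note: huh7 hepatoma cells stably carrying a psiCHECK-2 miR-122 sensor plasmid; renilla luciferase signal reporting endogenous miR-122 activity after 48 h compound exposure.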 It is filed as functional.
For experiment [28], the system named is BJ. In words: cells. It is filed as functional, cell-based. The conditions noted are these: Homo sapiens.
The nature of experiment [29]: DRD fibroblast viability loss – cell-based, non-viral oncogenic, luminescence, dose response (AID 1934). It is filed as functional. The conditions noted are these: Homo sapiens.
Experiment [30] has as its target Paired box protein Pax-8 (Homo sapiens, UniProt Q06710). Briefly: PAX8 transcriptional activity inhibition in RMG-I – RMG-I cells, luciferase, cherry-pick, dose response (AID 687027).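 Note: luciferase reporter driven by Pax8 target thyroperoxidase promoter measured by SteadyGlo luminescence.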 It is filed as functional, cell-based.
The subject of experiment [31] is BJ. Briefly: BJ-TERT fibroblast viability loss – cell-based, RAS-independent, luminescence, dose response (AID 1933). It is filed as functional. The conditions noted are these: Homo sapiens.
Experiment [32] in a line: general cell-killing toxicity readout – plate reader, dry powder samples, cytotoxicity control for PAX8 inhibitor project, dose response (AID 743021). It is filed as functional, cell-based.

The source made the active and inactive calls.

The term EC50 denotes the concentration at which the effect is half-maximal. As a reminder, the AC50 is the concentration giving half of the maximal activity seen. What is called IC50 is the midpoint of a concentration-inhibition curve. Broadly, the Ki is a measure of affinity in units of concentration, obtained from inhibition or displacement.

Paired box protein Pax-8, sequence (Q06710 whole entry): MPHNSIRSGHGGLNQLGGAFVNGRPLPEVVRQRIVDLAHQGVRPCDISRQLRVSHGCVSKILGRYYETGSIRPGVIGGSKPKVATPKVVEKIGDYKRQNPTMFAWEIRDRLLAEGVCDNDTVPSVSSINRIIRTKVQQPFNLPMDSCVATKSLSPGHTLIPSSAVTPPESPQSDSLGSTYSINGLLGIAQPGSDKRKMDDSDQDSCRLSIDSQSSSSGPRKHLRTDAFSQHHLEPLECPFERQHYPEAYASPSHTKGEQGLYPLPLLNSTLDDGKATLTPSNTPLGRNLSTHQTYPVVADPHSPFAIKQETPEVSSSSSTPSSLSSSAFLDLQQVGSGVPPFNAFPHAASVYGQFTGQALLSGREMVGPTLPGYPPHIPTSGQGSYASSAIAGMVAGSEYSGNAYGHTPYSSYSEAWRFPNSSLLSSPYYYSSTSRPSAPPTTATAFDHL

As for `N#Cc1ccc(NC(=O)Nc2ccc(Oc3ccc(NC(=O)Nc4ccc(C#N)cc4)cc3)cc2)cc1`, the EC50 is > 60 µM (not active) in [1]; > 120 µM (not active) in [4]; 8.67 µM (active) in [6]; 1.01 µM (active) in [9]; 10.1 µM (active) in experiment [10]. The AC50 in experiment [2] was 13.1 µM (active); in [3], 2.68 µM (active); in experiment [5], 6.66 µM (active); in experiment [7] it was 6.46 µM (active); in experiment [8] it was 5.02 µM (active).

For `CCOC(=O)N1CCC(NC(=O)C2CCCN(Cc3nc(-c4ccc(CC)cc4)oc3C)C2)CC1` (stereo not drawn), the IC50 in [11] is 9.26 µM (active).

Consider `CCOc1ccccc1NC(=O)CSc1nccn1-c1ccccc1`, for which, in [12], the Ki is > 66.7 µM (inactive).

Consider `CC1Cc2cc(-c3csc(NC(=O)Cc4cccs4)n3)ccc2N1S(C)(=O)=O` (stereo not drawn), for which the CC50 in [13] was > 40 µM (active). Also, the IC50 in [14] is 7.01 µM (active); in experiment [15] it was 38 µM (inactive); in [17], 14.1 µM (active); in [11] it was 3.11 µM (active). Also, the AC50 in experiment [16] was 5.65 µM (active); in experiment [18], 54.5 µM (active).

As to `O=C1Nc2ccccc2/C1=C1/SC(=S)N(CC2CCCO2)C1=O` (stereo not drawn), the Ki in experiment [12] was > 66.7 µM (inactive).

As to `COc1ccccc1C1C(C(=O)c2ccccc2)=C(O)C(=O)N1CC(C)O` (stereo not drawn), in experiment [12], the Ki is 24.6 µM (inactive).

Turning to `Oc1ccc(-c2csc(-c3cccnc3)n2)c(O)c1`, the AC50 in experiment [19] was 42.4 µM (active); in experiment [21], 44.3 µM (active); in [22] it was 23.6 µM (active). Moreover, the CC50 in experiment [20] was 100 µM (active). Further, the IC50 in experiment [23] was 30.9 µM (active).

Turning to `CCOc1cc(C(=O)O)ccc1OCCOc1ccccc1`, in [24], the AC50 was 34 µM (active).

On to `Cc1onc(C(=O)N2CCN(C(c3ccccc3)c3ccccc3)CC2)c1[N+](=O)[O-]`, for which the EC50 in experiment [25] was 6.63 µM (active); in [26], > 150 µM (not active); in experiment [28], 5.65 µM (active); in [29], 4.77 µM (active); in experiment [31] it was 0.659 µM (inconclusive). The AC50 in [5] was 3.14 µM (active); in experiment [27] it was 66.8 µM (active); in experiment [8], 10.8 µM (active); in experiment [30], 5.28 µM (active); in [32], 3.3 µM (active).

Consider `CCCC(=O)Nc1ccc2c(c1)C(=O)N(C)[C@@H]1CC[C@H](CC(=O)Nc3cn(C)nc3C)O[C@@H]1CO2`, for which, in experiment [8], the AC50 was 0.499 µM (active).

The values are drawn from ChEMBL document CHEMBL1201862, “PubChem BioAssay data set” (2004).
